Experimental findings from US20250163104A1, “MACROCYCLIC IMMUNOMODULATORS” (priority 2021, published 2025) are described below.

Each structure is given as a SMILES string. pIC50: −log10 of the molar value. *1 amine or outer side, *2 acyl side, *3 side chain or, on linkers, in order; H or OH if unused. Where a SMILES comes first, the peptide text is derived from it. Bridges are numbered along the chain shown (N, C = ends). [ ]: non-standard residue; d: D form. The star is where a group is joined. ξ: configuration not given here. X4 = O=C([C@H](CCNC[C@@H](O)[C@H](O)[C@H](O)[C@@H](O)[C@H](O)CO)N[*:1])[*:2]; Phe(3-CF3) = N[C@@H](Cc1cccc(C(F)(F)F)c1)C(=O)O; Phe(4-CF3) = N[C@@H](Cc1ccc(C(F)(F)F)cc1)C(=O)O; Ala(morpholin-4-yl) = N[C@@H](CN1CCOCC1)C(=O)O; Phe(4-COOH) = N[C@@H](Cc1ccc(C(=O)O)cc1)C(=O)O; X5 = O=C([C@H](Cc1ccc2ncccc2c1)N[*:1])[*:2]; Bip = N[C@@H](Cc1ccc(-c2ccccc2)cc1)C(=O)O; Phe(3-Me) = Cc1cccc(C[C@H](N)C(=O)O)c1; Val(3-OH) = CC(C)(O)[C@H](N)C(=O)O; 4Pal = N[C@@H](Cc1ccncc1)C(=O)O; Cha = N[C@@H](CC1CCCCC1)C(=O)O; Ile(3ξ) = CCC(C)[C@H](N)C(=O)O; Thr(3ξ) = CC(O)[C@H](N)C(=O)O; Carboxymethyl = O=C(O)C*; Nle = CCCC[C@H](N)C(=O)O; Orn = NCCC[C@H](N)C(=O)O; Pra = C#CC[C@H](N)C(=O)O; Dab = NCC[C@H](N)C(=O)O; Nva = CCC[C@H](N)C(=O)O

The target in the assay is T1, human PD-1 / PD-L1-Ig binding on Jurkat cell line over-expressing human PD-1 (Jurkat-PD-1) (Homo sapiens, UniProt Q15116).
T1 construct: expressed in transfected cells; host or cells: Jurkat
T1 sequence (Q15116 25-288): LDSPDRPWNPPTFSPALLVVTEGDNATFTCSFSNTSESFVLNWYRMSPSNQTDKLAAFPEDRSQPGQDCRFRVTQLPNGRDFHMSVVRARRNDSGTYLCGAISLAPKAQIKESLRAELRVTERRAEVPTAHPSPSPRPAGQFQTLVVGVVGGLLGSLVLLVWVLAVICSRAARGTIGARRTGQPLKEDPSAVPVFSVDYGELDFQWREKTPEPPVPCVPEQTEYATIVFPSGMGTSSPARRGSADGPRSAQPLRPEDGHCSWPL
Description: Jurkat-PD-1 Cell Binding High-Content Screening Assay (CBA). Type of assay: cell-based. The following applies: Jurkat-PD-1 cells, PE-labeled PD-L1-Ig 20 nM final; read-out: Jurkat HPD1_PDL1 IC50. The method, boiled down: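 Jurkat cells over-expressing human PD-1, in DMEM/10% FCS, pre-incubated with compound 2 h at 37° C. PE-labeled human PD-L1-Ig (20 nM final) added for 1 h; cells fixed in paraformaldehyde with Hoechst 33342 nuclear stain, washed, and bound fluorescence quantified by high-content imaging.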

As for `CCC(C)[C@@H]1NC(=O)[C@H](Cc2ccc(-c3ccccc3)cc2)NC(=O)[C@H](C(C)O)NC(=O)[C@H](Cc2c[nH]c3ccccc23)NC(=O)[C@H](CC(=O)O)NC(=O)[C@H](Cc2ccc(OCC(=O)O)cc2)NC(=O)[C@H](C(C)O)NC(=O)CSC[C@@H](C(=O)N[C@@H](CC(N)=O)C(=O)O)NC(=O)[C@H](CO)NC(=O)[C@H](C(C)C)NC(=O)[C@H](CC(C)C)NC(=O)[C@H](CCN)NC(=O)[C@@H](CC(C)C)NC(=O)[C@H](CCCN)NC1=O` (stereo partly drawn) [Compound 2572] ({CH2CO}-[Thr(3ξ)]Y(Carboxymethyl)DW[Thr(3ξ)][Bip][Ile(3ξ)][Orn][dL][Dab]LVSCN-OH; thioether N-14), the pIC50 was 7.11.

Consider `CC(C)C[C@H]1NC(=O)[C@H](CCCN)NC(=O)[C@H](Cc2ccc(C(=O)O)cc2)NC(=O)[C@H](Cc2ccc(-c3ccccc3)cc2)NC(=O)[C@H](Cc2ccc(-c3ccccc3)cc2)NC(=O)[C@H](Cc2cccc(C(F)(F)F)c2)NC(=O)[C@H](CC(=O)O)NC(=O)[C@H](Cc2ccc(C(=O)O)cc2)NC(=O)[C@H](CN2CCOCC2)NC(=O)CSC[C@@H](C(=O)N[C@@H](CCN)C(N)=O)NC(=O)[C@H](CCC(=O)O)NC(=O)[C@H](C(C)C)NC(=O)[C@H](CC2CCCCC2)NC(=O)[C@H](CCN)NC1=O` [Example 2746] ({CH2CO}-[Ala(morpholin-4-yl)][Phe(4-COOH)]D[Phe(3-CF3)][Bip][Bip][Phe(4-COOH)][Orn][dL][Dab][Cha]VEC[Dab]-NH2; thioether N-14), for which the negative-log IC50 (pIC50) was 8.43. For the molecule `CC[C@H](C)[C@@H]1NC(=O)[C@H](Cc2ccc(-c3ccccc3)cc2)NC(=O)[C@H](C(C)C)NC(=O)[C@H](Cc2cccc(C)c2)NC(=O)[C@H](CC(=O)O)NC(=O)[C@H](Cc2ccc(C(=O)O)cc2)NC(=O)[C@H](Cc2ccc(OCC(=O)O)cc2)NC(=O)CSC[C@@H](C(=O)N[C@@H](C)C(N)=O)NC(=O)[C@H]([C@@H](C)O)NC(=O)[C@H](C(C)C)NC(=O)[C@H](CC(C)C)NC(=O)[C@H](CCN)NC(=O)[C@@H](CC(C)C)NC(=O)[C@H](CCCN)NC1=O` [Compound 1249] ({CH2CO}-Y(Carboxymethyl)[Phe(4-COOH)]D[Phe(3-Me)]V[Bip]I[Orn][dL][Dab]LVTCA-NH2; thioether N-14), the pIC50 was 8.34. The value for `Cc1cccc(C[C@@H]2NC(=O)[C@H](CC(=O)O)NC(=O)[C@H](Cc3ccc(OCC(=O)O)cc3)NC(=O)[C@H](Cc3ccc(C(F)(F)F)cc3)NC(=O)CSC[C@@H](C(=O)N[C@@H](CCN)C(N)=O)NC(=O)[C@H](CCC(=O)O)NC(=O)[C@H](C(C)(C)O)NC(=O)[C@H](CC3CCCCC3)NC(=O)[C@H](CCN)NC(=O)[C@@H](CC(C)C)NC(=O)[C@H](CCCN)NC(=O)[C@H](Cc3ccc(OCC(=O)O)cc3)NC(=O)[C@H](Cc3ccc(-c4ccccc4)cc3)NC(=O)[C@H](Cc3ccc(OCC(=O)O)cc3)NC2=O)c1` [Compound 2691] ({CH2CO}-[Phe(4-CF3)]Y(Carboxymethyl)D[Phe(3-Me)]Y(Carboxymethyl)[Bip]Y(Carboxymethyl)[Orn][dL][Dab][Cha][Val(3-OH)]EC[Dab]-NH2; thioether N-14) was 8.17. As for `CC(C)C[C@H]1NC(=O)[C@H](CCCN)NC(=O)[C@H](CCC(=O)O)NC(=O)[C@H](Cc2ccc(-c3ccccc3)cc2)NC(=O)[C@H](C(C)C)NC(=O)[C@H](Cc2cccc(Cl)c2)NC(=O)[C@H](CC(=O)O)NC(=O)[C@H](Cc2ccc(O)cc2)NC(=O)[C@H](Cc2ccncc2)NC(=O)CSC[C@@H](C(=O)N[C@@H](C)C(N)=O)NC(=O)[C@H]([C@@H](C)O)NC(=O)[C@H](C(C)C)NC(=O)[C@H](CC2CCCCC2)NC(=O)[C@H](CCN)NC1=O` [Compound 1489], the negative-log IC50 (pIC50) is 7.87. As to `CC(C)C[C@H]1NC(=O)[C@H](CCCN)NC(=O)[C@H](CCC(=O)O)NC(=O)[C@H](Cc2ccc(-c3ccccc3)cc2)NC(=O)[C@H](C(C)C)NC(=O)[C@H](Cc2c[nH]c3ccccc23)NC(=O)[C@H](CC(=O)O)NC(=O)[C@H](Cc2ccc3ncccc3c2)NC(=O)[C@H](CC(N)=O)NC(=O)CSC[C@@H](C(=O)N[C@@H](C)C(N)=O)NC(=O)[C@H]([C@@H](C)O)NC(=O)[C@H](C(C)C)NC(=O)[C@H](CC2CCCCC2)NC(=O)[C@H](CCN)NC1=O` [Compound 2175] ({CH2CO}-N[X5]DWV[Bip]E[Orn][dL][Dab][Cha]VTCA-NH2; thioether N-14), the pIC50 is 7.16. In the case of `Cc1cccc(C[C@@H]2NC(=O)[C@H](CC(=O)O)NC(=O)[C@H](Cc3ccc(C(=O)O)cc3)NC(=O)[C@H](Cc3ccncc3)NC(=O)CSC[C@@H](C(=O)N[C@H](CC(N)=O)C(N)=O)NC(=O)[C@H](CO)NC(=O)[C@H](C(C)C)NC(=O)[C@H](CC3CCCCC3)NC(=O)[C@H](CCN)NC(=O)[C@@H](CC(C)C)NC(=O)[C@H](CCCN)NC(=O)[C@H](Cc3ccc(OCC(=O)O)cc3)NC(=O)[C@H](Cc3ccc(-c4ccccc4)cc3)NC(=O)[C@H](Cc3ccc(OCC(=O)O)cc3)NC2=O)c1` [Compound 2313] ({CH2CO}-[4Pal][Phe(4-COOH)]D[Phe(3-Me)]Y(Carboxymethyl)[Bip]Y(Carboxymethyl)[Orn][dL][Dab][Cha]VSC[dN]-NH2; thioether N-14), the pIC50 was 7.88. The value for `CC(C)C[C@H]1NC(=O)[C@H](CCCN)NC(=O)[C@H](C(C)C)NC(=O)[C@H](Cc2ccc(-c3ccccc3)cc2)NC(=O)[C@H](C(C)C)NC(=O)[C@H](Cc2cccc(C(F)(F)F)c2)NC(=O)[C@H](CC(=O)O)NC(=O)[C@H](Cc2ccc(C(=O)O)cc2)NC(=O)[C@H](Cc2ccc(OCC(=O)O)cc2)NC(=O)CSC[C@@H](C(=O)N[C@@H](C)C(N)=O)NC(=O)[C@H]([C@@H](C)O)NC(=O)[C@H](C(C)C)NC(=O)[C@H](CC2CCCCC2)NC(=O)[C@H](CCN)NC1=O` [Compound 1571] was 7.77; that for `C#CC[C@H](NC(=O)[C@@H]1CSCC(=O)N[C@@H](CCC)C(=O)N[C@@H](Cc2ccc(OCC(=O)O)cc2)C(=O)N[C@@H](CC(=O)O)C(=O)N[C@@H](Cc2cccc(C)c2)C(=O)N[C@@H](Cc2ccc(OCC(=O)O)cc2)C(=O)N[C@@H](Cc2ccc(-c3ccccc3)cc2)C(=O)N[C@@H](Cc2ccc(OCC(=O)O)cc2)C(=O)N[C@@H](CCCC)C(=O)N[C@H](CC(C)C)C(=O)N[C@@H](CCNC[C@@H](O)[C@H](O)[C@H](O)[C@@H](O)[C@H](O)CO)C(=O)N[C@@H](CC2CCCCC2)C(=O)N[C@@H](C(C)C)C(=O)N[C@@H](CCC(=O)O)C(=O)N1)C(=O)O` [Compound 2699] ({CH2CO}-[Nva]Y(Carboxymethyl)D[Phe(3-Me)]Y(Carboxymethyl)[Bip]Y(Carboxymethyl)[Nle][dL][X4][Cha]VEC[Pra]-OH; thioether N-14) was 6.62; that for `CC(C)C[C@@H]1NC(=O)[C@H](CCN)NC(=O)[C@@H](CC(C)C)NC(=O)[C@H](CCN)NC(=O)[C@H](C(C)C)NC(=O)[C@H](Cc2ccc(-c3ccccc3)cc2)NC(=O)[C@H](C(C)C)NC(=O)[C@H](Cc2c[nH]c3ccccc23)NC(=O)[C@H](CC(=O)O)NC(=O)[C@H](Cc2ccc(O)cc2)NC(=O)[C@H](CC(N)=O)NC(=O)CSC[C@@H](C(=O)N[C@@H](C)C(N)=O)NC(=O)[C@H]([C@@H](C)O)NC(=O)[C@H](C(C)C)NC1=O` [Compound 1029] ({CH2CO}-NYDWV[Bip]V[Dab][dL][Dab]LVTCA-NH2; thioether N-14) was 8.27.
